Reference: patent US9486434B2, “Method for delivery and use of isothiocyanates for prophylaxis and/or therapy of bladder cancer” (Health Research Inc., priority 2010, dated 2016)
* marks the point of attachment. Cbz = O=C(OCc1ccccc1)*; CH2F = FC*

Legend:
[1] = system: orthotopic AY-27 bladder tumor; assay: Orthotopic rat bladder cancer model; type: in vivo, rat (female F344); conditions: sinigrin
Excerpt: FIG. 6. […] Female F344 rats were inoculated intravesically with bladder cancer AY-27 cells to initiate development of orthotopic bladder tumor. Oral administration of AITC at 0, 10, 25, 50 and 300 micromols/kg once daily was started 1 day after AY-27 cell inoculation and ended 3 weeks later. The number of rats per group varied from 6 to 33; some of the data, particularly the control group (n=33) and the group treated with the lowest dose of AITC (n=23), were pooled from several experiments. A. The initial and final body weights. B. The weights of bladder tumors. […] C. Percentage of bladders where the tumor invaded the muscle tissue. D. H/E staining of the normal rat bladder wall (D1), a superficial rat bladder tumor (D2), and a rat bladder tumor that invaded the muscle layer (D3).
FIG. 8. […] Female F344 rats were inoculated with AY-27 cells intravesically via a urethra catheter to initiate development of orthotopic bladder cancer. Oral administration of MSP-1 of vehicle (water) once daily was started 1 day after cancer cell inoculation and ended 3 weeks later. The number of rats per group varied from 11-29. A. Initial (□) and final (▪) body weights. […] Each value in A and B is mean±SEM. C. Percentage of bladder where the tumor invaded the muscle tissue. D. The effects of MSP-1 on selected anticancer targets in UM-UC-3 cells (in vitro), AY-27 cells (in vitro) and AY-27 tumors (in vivo). […] The bladder tumors were removed from rats treated with MSP-1 at the sinigrin doses of 9 or 90 micromols/kg once daily for 3 weeks, started 1 day after cancer cell inoculation. Cell lysates and tumor homogenates were analyzed by Western blotting, using GAPDH as a loading control.
FIG. 9. […] Female F344 rats were inoculated with bladder cancer AY-27 cells to initiate development of orthotopic bladder tumor. Oral administration of the powder (sinigrin and glucoraphanin: each at 10 micromols/kg) once daily was started 1 day after AY-27 cell inoculation and ended 3 weeks later. The number of rats per group was 9-10. Each value is mean±SE.
FIG. 12. […] Bladder cancer was initiated in female F344 rats by orthotopic inoculation of bladder cancer AY-27 cells. Oral administration of NAC-AITC at 10 μmmol/kg body wt once daily was started 1 day after cancer cell inoculation and ended 3 weeks later. There were 23 rats in the control group and 15 rats in the treatment group. (A) The initial (open bars) and final (closed bars) body weight. (B) Bladder tumor weight. Each value is a mean±SE. (C) Percentage of bladders where the tumor invaded the muscle tissue.
AITC was evaluated in an orthotopic rat bladder cancer model. […] Daily oral administration of AITC was initiated one day after instillation of AY-27 cells and continued for 3 weeks. AITC was evaluated at 4 dose levels: 10, 25, 50 and 300 micromols/kg. […] FIG. 6D depicts representative images of normal rat bladder wall (D1), a superficial AY-27 rat bladder tumor (D2), and a muscle-invasive AY-27 rat bladder tumor (D3).
A syngeneic orthotopic rat bladder cancer model.

[2] = system: human bladder cancer UM-UC-3 cells; assay: MTT cell growth and proliferation assay, UM-UC-3 cells; type: cell-based; conditions: sinigrin by itself, without myrosinase; result not shown
Experimental: (§1) FIG. 3. The effect of AITC on cell survival and proliferation. AITC was evaluated at the indicated concentrations in human bladder cancer UM-UC-3 cells, rat bladder cancer AY-27 cells, and normal human bladder epithelial cells (HUC). A. Cell growth inhibition, measured by MTT assay, 72-h AITC treatment. IC50 was calculated from nonlinear regression curve fit. B. Cell cycle arrest (□, subG1; ? , G1; ? , 5; ▪, G2/M), measured by flow cytometry, 24 h AITC treatment. C. Apoptosis induction, measured by an ELISA assay, 24 h AITC treatment. Mean±SE, n=3-6), *P<0.05.
(§2) FIG. 10. The effect of NAC-AITC on cell survival and proliferation. NAC-AITC was evaluated in both UM-UC-3 cells and AY-27 cells. (A) Chemical structures of AITC and NAC-AITC. (B) Cell growth and proliferation, measured by 3-([…])-2,5-diphenyltetrazolium bromide assay, 72 h treatment with AITC or NAC-AITC at indicated concentrations. IC50 was calculated from the non-linear regression curve fit. (C) Apoptosis, measured by an enzyme-linked immunosorbent assay, 24 h NAC-AITC treatment at 15 µM. (D) Cell cycle (open bars, G1; shaded bars, S; closed bars, G2/M), measured by flow cytometry, 24 h NAC-AITC treatment at 15 μM. *P<, 0.005, compared with control.
(§3) Assays for cell proliferation, cell cycle arrest and apoptosis. To determine the antiproliferative activity of NAC-AITC, AY-27 cells were grown in 96-well microtiter plates ([…] with 0.15 ml medium per well) for 24 h and then grown for 72 h in fresh medium (0.2 ml/well) containing a series of concentrations of NAC-AITC or solvent. Cell growth was measured at the end of treatment using the 3-([…])-2,5-diphenyltetrazolium bromide assay, from which the half maximal inhibitory concentration (IC50) of NAC-AITC was calculated. AITC was also evaluated for comparison.

[3] = Conversion of sinigrin to AITC in vivo; conditions: rat
[4] = system: rat bladder cancer AY-27 cells; assay: MTT cell growth and proliferation assay, AY-27 cells; type: cell-based; conditions: sinigrin by itself, without myrosinase; result not shown
Experimental: as §1, §2, §3

[5] = system: cyclooxygenase-2 (Cox-2) in human bladder cancer HT1376 cells; assay: Western blot analysis of Cox-2 in HT1376 cells; type: cell-based; conditions: 24 h, cells overexpressing Cox-2
Experimental: FIG. 5. The effects of AITC and SF on cyclooxygenase-2 (Cox-2) expression in human bladder cancer cells. Human bladder cancer HT1376 cells that over express Cox-2 were treated with AITC or SF at the indicated concentrations for 24 h and then harvested for Western blot analysis of Cox-2. GAPDH is used as a loading control.

[6] = reference [18]; cited from earlier work
[7] = system: α-tubulin, β-tubulin, γ-tubulin, caspase-9, caspase-3, VEGF in UM-UC-3 cells; assay: Western blotting in UM-UC-3 cells (tubulins, caspases, VEGF); type: cell-based, human; conditions: co-treatment, 20 microM Z-LEHD-FMK
Experimental: (§4) FIG. 4. Effect of AITC on mitosis, tubulin expression and apoptosis in human bladder cancer UM-UC-3 cells. Cells were treated with vehicle or AITC for 24 h (each numerical value is mean±SD). A. Flow cytometry analysis for cell cycle arrest. B. Wright-Giemsa staining for counting mitotic figures. Arrows point to cells in mitosis or mitotic catastrophe. C. Immunofluorescent staining of microtubules (green color) and DNA staining with DAPI (blue color). D. Western blotting of tubulins (GAPDH as a loading control). E. Loss of mitochondrial transmembrane potential (Δψm) measured by flow cytometry. F. Western blotting of caspase-9 and caspase-3 (GAPDH as a loading control). G. Apoptotic cells (TUNEL cells) measured by flow cytometry. Cells in F and G were co-treated with or without 20 microM Z-LEHD-FMK (a caspase-9 inhibitor).
FIG. 8. Inhibition of bladder cancer development by MSP-1. Female F344 rats were inoculated with AY-27 cells intravesically via a urethra catheter to initiate development of orthotopic bladder cancer. Oral administration of MSP-1 of vehicle (water) once daily was started 1 day after cancer cell inoculation and ended 3 weeks later. The number of rats per group varied from 11-29. A. Initial (□) and final (▪) body weights. B. Tumor weight was calculated by subtracting the average normal bladder weight from tumor-bearing bladder weight. *P<0.05. Each value in A and B is mean±SEM. C. Percentage of bladder where the tumor invaded the muscle tissue. D. The effects of MSP-1 on selected anticancer targets in UM-UC-3 cells (in vitro), AY-27 cells (in vitro) and AY-27 tumors (in vivo). The cells were treated with MSP-1 at the sinigrin concentrations of 13 and 26 microM for 24 h. The bladder tumors were removed from rats treated with MSP-1 at the sinigrin doses of 9 or 90 micromols/kg once daily for 3 weeks, started 1 day after cancer cell inoculation. Cell lysates and tumor homogenates were analyzed by Western blotting, using GAPDH as a loading control.
Western blot analysis. […]

UM-UC-3 cells = assay: Mitochondria-mediated apoptosis in UM-UC-3 cells (Δψm, cytochrome c, TUNEL); type: cell-based, human; conditions: co-treatment, 20 microM Z-LEHD-FMK
Experimental: as §4

Molecule: C=CCC(=NOS(=O)(=O)O)S[C@@H]1O[C@H](CO)[C@@H](O)[C@H](O)[C@H]1O (stereo in doubt) [sinigrin, reference compound]
- efficacy in the orthotopic rat bladder cancer model [1]: ineffective
- activity in vitro on bladder cancer cell line [2]: inactive
- sinigrin converted to AITC in vivo [3]: 3-5%
- activity in vitro on bladder cancer cell line [4]: inactive

Molecule: C[S+]([O-])CCCCN=C=S (centres unmarked) [SF, sulforaphane]
- effect on Cox-2 expression [5]: strongly down regulates
- delivery to bladder tissue [6]: selectively delivered to bladder tissue through urinary excretion

Molecule: Cbz-LEHD-CH2F [reference compound]
- effect on AITC-caused activation of the caspases [7]: completely blocked
- effect on AITC-caused formation of TUNEL-positive cells (UM-UC-3 cells): completely blocked
